Assay results: the supplement of paper PMC5908809

Experiments:
[1] = test system: normal NK cells expanded with K562-aAPC; test: drug sensitivity score (DSS) (DSS units); higher = more sensitive; extreme values may be limits of the assay; conditions: 72 h; IL-2 2.5 ng/mL
Method: (§1)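 Drug sensitivity and resistance testing on K562-aAPC-expanded normal NK cells: 5 concentrations (10-fold steps over a 10,000-fold range), 72 h at 37 °C, viability by CellTiter-Glo normalised to DMSO and benzethonium chloride controls; DSS from the fitted curve.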

[2] = test system: normal NK cells expanded with K562-aAPC; test: percent inhibition of viability; higher = more inhibition; conditions: 72 h, IL-2 2.5 ng/mL
Method: as §1

NK-92 (IL-2 2.5 ng/mL) [3] = test: as above; conditions: 72 h
[4] = test system: normal primary NK cells, pool 1 (3 donors), resting (IL-2 0 ng/mL); test: as above; conditions: 72 h
IMC-1 (IL-2 20 ng/mL) [5] = test: as above; conditions: 72 h
KAI3 (IL-2 2.5 ng/mL) [6] = test: as above; conditions: 72 h
NK-YS (IL-2 2.5 ng/mL) [7] = test: as above; conditions: 72 h
YT (IL-2 2.5 ng/mL) [8] = test: as above; conditions: 72 h
[9] = test system: normal primary NK cells, pool 2 (3 donors) (IL-2 2.5 ng/mL); test: as above; conditions: 72 h
DERL-7 (IL-2 2.5 ng/mL) [10] = test: as above; conditions: 72 h
SNK-6 (IL-2 2.5 ng/mL) [11] = test: as above; conditions: 72 h
[12] = test system: normal primary NK cells, pool 1 (3 donors) (IL-2 2.5 ng/mL); test: as above; conditions: 72 h
[13] = test system: normal primary NK cells, pool 3 (3 donors) (IL-2 2.5 ng/mL); test: as above; conditions: 72 h
KHYG-1 (IL-2 2.5 ng/mL) [14] = test: as above; conditions: 72 h
NKL (IL-2 2.5 ng/mL) [15] = test: as above; conditions: 72 h
NK-92 (IL-2 2.5 ng/mL) [16] = test: drug sensitivity score (DSS) (DSS units); higher = more sensitive; extreme values may be limits of the assay; conditions: 72 h
[17] = test system: normal primary NK cells, pool 1 (3 donors), resting (IL-2 0 ng/mL); test: as above; conditions: 72 h
IMC-1 (IL-2 20 ng/mL) [18] = test: as above; conditions: 72 h
KAI3 (IL-2 2.5 ng/mL) [19] = test: as above; conditions: 72 h
NK-YS (IL-2 2.5 ng/mL) [20] = test: as above; conditions: 72 h
YT (IL-2 2.5 ng/mL) [21] = test: as above; conditions: 72 h
[22] = test system: normal primary NK cells, pool 2 (3 donors) (IL-2 2.5 ng/mL); test: as above; conditions: 72 h
DERL-7 (IL-2 2.5 ng/mL) [23] = test: as above; conditions: 72 h
SNK-6 (IL-2 2.5 ng/mL) [24] = test: as above; conditions: 72 h
[25] = test system: normal primary NK cells, pool 1 (3 donors) (IL-2 2.5 ng/mL); test: as above; conditions: 72 h
[26] = test system: normal primary NK cells, pool 3 (3 donors) (IL-2 2.5 ng/mL); test: as above; conditions: 72 h
KHYG-1 (IL-2 2.5 ng/mL) [27] = test: as above; conditions: 72 h
NKL (IL-2 2.5 ng/mL) [28] = test: as above; conditions: 72 h

c1ccc([C@H]2CN3CCSC3=N2)cc1 [Levamisole] (max concentration tested 10000 nM)
Conditions	drug sensitivity score
DERL-7 (IL-2 2.5 ng/mL) [23]	0
IMC-1 (IL-2 20 ng/mL) [18]	0
KAI3 (IL-2 2.5 ng/mL) [19]	0
KHYG-1 (IL-2 2.5 ng/mL) [27]	0
NK-92 (IL-2 2.5 ng/mL) [16]	0
NK-YS (IL-2 2.5 ng/mL) [20]	0
NKL (IL-2 2.5 ng/mL) [28]	0
SNK-6 (IL-2 2.5 ng/mL) [24]	0
YT (IL-2 2.5 ng/mL) [21]	0
[1]	0
[17]	0
[22]	0
[25]	0
[26]	0

percent inhibition of viability [%]
Conditions	1 nM	10 nM	100 nM	1000 nM	10000 nM
DERL-7 (IL-2 2.5 ng/mL) [10]	-5.12	0.58	-3.2	-6.8	-8.1
IMC-1 (IL-2 20 ng/mL) [5]	0.36	-1.13	-6.73	-2.24	-6.39
KAI3 (IL-2 2.5 ng/mL) [6]	-7.01	-9.23	-10.5	-11.1	-14.3
KHYG-1 (IL-2 2.5 ng/mL) [14]	-4.84	-2.9	-4.9	-1.62	-2.11
NK-92 (IL-2 2.5 ng/mL) [3]	-11.8	-18.9	-18.4	-24.3	-19.2
NK-YS (IL-2 2.5 ng/mL) [7]	-2.25	-3.37	-7.18	-2.36	-6.1
NKL (IL-2 2.5 ng/mL) [15]	-11.2	0.14	-6.49	-4.45	-10.6
SNK-6 (IL-2 2.5 ng/mL) [11]	3.65	13.1	-14.1	-5.97	-47.5
YT (IL-2 2.5 ng/mL) [8]	-3.76	-6.23	-5.31	-5.18	-4.44
[2]	-4.29	-11	-5.79	-6.94	-11
[4]	-4.85	-2.06	13.8	4.07	3.16
[9]	-4.91	-0.55	-10.1	-7.03	-10.1
[12]	-7.56	-2.22	4.92	-0.77	2.81
[13]	-8.31	-11.3	-9.28	-4.76	-5.98

O=C(c1cc(Cc2n[nH]c(=O)c3ccccc23)ccc1F)N1CCN(C(=O)C2CC2)CC1 [Olaparib] (max concentration tested 10000 nM)
Conditions	drug sensitivity score
DERL-7 (IL-2 2.5 ng/mL) [23]	1.54
IMC-1 (IL-2 20 ng/mL) [18]	4.75
KAI3 (IL-2 2.5 ng/mL) [19]	7.15
KHYG-1 (IL-2 2.5 ng/mL) [27]	5.78
NK-92 (IL-2 2.5 ng/mL) [16]	7.35
NK-YS (IL-2 2.5 ng/mL) [20]	8.28
NKL (IL-2 2.5 ng/mL) [28]	14.5
SNK-6 (IL-2 2.5 ng/mL) [24]	8.04
YT (IL-2 2.5 ng/mL) [21]	1.37
[1]	3.25
[17]	0.22
[22]	0.48
[25]	0
[26]	0.4

percent inhibition of viability [%]
Conditions	1 nM	10 nM	100 nM	1000 nM	10000 nM
DERL-7 (IL-2 2.5 ng/mL) [10]	-1.68	4.77	-8.94	1.1	31.5
IMC-1 (IL-2 20 ng/mL) [5]	2.29	1.77	7.69	13.7	53.5
KAI3 (IL-2 2.5 ng/mL) [6]	0.33	3.77	9.9	28.6	72.2
KHYG-1 (IL-2 2.5 ng/mL) [14]	-5.18	-5.25	0.38	10.5	72.6
NK-92 (IL-2 2.5 ng/mL) [3]	4.94	9.54	8.93	21.5	79.2
NK-YS (IL-2 2.5 ng/mL) [7]	-6.43	-6.57	3.49	20.7	90.7
NKL (IL-2 2.5 ng/mL) [15]	0.33	9.8	27.9	57.2	80.5
SNK-6 (IL-2 2.5 ng/mL) [11]	1.96	-1.75	-10.2	19.4	89.5
YT (IL-2 2.5 ng/mL) [8]	4.35	1.35	5.37	3.91	22.8
[2]	5.19	4.79	5.47	7.88	39.6
[4]	-10.9	1.92	-9.9	-1.32	15.6
[9]	-7.93	-9.67	-11	2.31	15.4
[12]	3.22	7.12	-3.15	3.31	8.24
[13]	-7.91	-1.82	-4.22	3.8	13.5
